Assay results: ChEMBL document CHEMBL1133593 (J Med Chem, 2000)

Target: Phosphoglycerate kinase (Trypanosoma brucei)
Test: evaluated for the inhibition of Trypanosoma brucei Phosphoglycerate kinase (PGK)

Work on `Nc1nc(NC2CCCCCC2)nc2c1ncn2C1O[C@H](CO)[C@@H](O)[C@H]1O` (stereo partly specified) yielded an IC50 of 3000 µM.

In the case of `Nc1nc(NCCNc2nc(N)nc3c2ncn3C2O[C@H](CO)[C@@H](O)[C@H]2O)c2ncn(C3O[C@@H](CO)[C@H](O)[C@@H]3O)c2n1` (stereo partly specified), the IC50 is reported as 500 µM.

`Nc1nc(NCC2CCCCC2)c2ncn(C3O[C@H](CO)[C@@H](O)[C@H]3O)c2n1` (stereo partly specified) showed an IC50 of 2500 µM.

For `CC(CNc1nc(N)nc2c1ncn2C1O[C@H](CO)[C@@H](O)[C@H]1O)c1ccccc1` (stereo partly specified), the IC50 was 2900 µM.

`CCCNc1nc(N)nc2c1ncn2C1O[C@H](CO)[C@@H](O)[C@H]1O` (stereo partly specified) showed an IC50 of 3000 µM.

With `NCCCNc1nc(N)nc2c1ncn2C1O[C@H](CO)[C@@H](O)[C@H]1O` (stereo partly specified) the IC50 was 4000 µM.

With `Cc1ccc(CNc2nc(N)c3ncn(C4O[C@H](CO)[C@@H](O)[C@H]4O)c3n2)cc1` (stereo partly specified) the IC50 was 1500 µM.

`CC(Nc1nc(N)nc2c1ncn2C1O[C@H](CO)[C@@H](O)[C@H]1O)c1ccccc1` (stereo partly specified) showed an IC50 of 2900 µM.

`Nc1nc(NCCc2ccc(O)cc2)nc2c1ncn2C1O[C@H](CO)[C@@H](O)[C@H]1O` (stereo partly specified) gave an IC50 of 500 µM.

With `Cc1cccc(CNc2nc(N)c3ncn(C4O[C@H](CO)[C@@H](O)[C@H]4O)c3n2)c1` (stereo partly specified) the IC50 was 1500 µM.

With `OC[C@H]1OC(n2cnc3c(NCCc4ccccc4)nc(NCCc4ccccc4)nc32)[C@H](O)[C@@H]1O` (stereo partly specified) the IC50 was 30 µM.

`Nc1nc(NCCc2ccccc2)c2ncn(C3O[C@H](CO)[C@@H](O)[C@H]3O)c2n1` (stereo partly specified) showed an IC50 of 200 µM.

Compound `Nc1nc(NCCc2ccc(Cl)cc2Cl)nc2c1ncn2C1O[C@H](CO)[C@@H](O)[C@H]1O` (stereo partly specified) has an IC50 of 600 µM.

In the case of `C=CCNc1nc(N)nc2c1ncn2C1O[C@H](CO)[C@@H](O)[C@H]1O` (stereo partly specified), the IC50 is reported as 3000 µM.

`Nc1nc(NCCCc2ccccc2)c2ncn(C3O[C@H](CO)[C@@H](O)[C@H]3O)c2n1` (stereo partly specified) gave an IC50 of 4000 µM.

`Nc1nc(NCCc2cccc(Cl)c2)c2ncn(C3O[C@H](CO)[C@@H](O)[C@H]3O)c2n1` (stereo partly specified) showed an IC50 of 1200 µM.

With `OC[C@H]1OC(n2cnc3c(NCCc4ccccc4)nc(NCCc4ccc(O)cc4)nc32)[C@H](O)[C@@H]1O` (stereo partly specified) the IC50 was 100 µM.

`CCCCCNc1ncnc2c1ncn2[C@@H]1O[C@H](CO)[C@@H](O)[C@H]1O` gave an IC50 of 3000 µM.

`COc1cc(CCNc2nc(N)nc3c2ncn3C2O[C@H](CO)[C@@H](O)[C@H]2O)ccc1O` (stereo partly specified) was tested, and the IC50 was 1500 µM.

In the case of `C#CCNc1nc(N)nc2c1ncn2C1O[C@H](CO)[C@@H](O)[C@H]1O` (stereo partly specified), the IC50 is reported as 1500 µM.

With `COc1ccccc1CNc1nc(N)c2ncn(C3O[C@H](CO)[C@@H](O)[C@H]3O)c2n1` (stereo partly specified) the IC50 was 1400 µM.

`OC[C@H]1OC(n2cnc3c(NCCc4ccc(O)cc4)nc(NCCc4ccccc4)nc32)[C@H](O)[C@@H]1O` (stereo partly specified) showed an IC50 of 100 µM.

`Cc1cccc(CNc2nc(N)nc3c2ncn3C2O[C@H](CO)[C@@H](O)[C@H]2O)c1` (stereo partly specified) showed an IC50 of 400 µM.

`Nc1nc(NCc2ccccc2Cl)nc2c1ncn2C1O[C@H](CO)[C@@H](O)[C@H]1O` (stereo partly specified) gave an IC50 of 2000 µM.

With `Nc1nc(NCCc2cccc(O)c2)c2ncn(C3O[C@H](CO)[C@@H](O)[C@H]3O)c2n1` (stereo partly specified) the IC50 was 250 µM.

In the case of `Nc1nc(NCCc2ccccc2Cl)c2ncn(C3O[C@H](CO)[C@@H](O)[C@H]3O)c2n1` (stereo partly specified), the IC50 is reported as 1900 µM.

`NCCNc1ncnc2c1ncn2C1O[C@H](CO)[C@@H](O)[C@H]1O` (stereo partly specified) showed an IC50 of 2500 µM.

Compound `Nc1nc(NC2CCCC2)c2ncn(C3O[C@H](CO)[C@@H](O)[C@H]3O)c2n1` (stereo partly specified) has an IC50 of 1500 µM.

Work on `COc1cccc(CCNc2nc(N)nc3c2ncn3C2O[C@H](CO)[C@@H](O)[C@H]2O)c1` (stereo partly specified) yielded an IC50 of 1900 µM.

`CCNc1nc(N)nc2c1ncn2C1O[C@H](CO)[C@@H](O)[C@H]1O` (stereo partly specified) was tested, and the IC50 was 3500 µM.

For `Nc1ccc(CCNc2nc(N)c3ncn(C4O[C@H](CO)[C@@H](O)[C@H]4O)c3n2)cc1` (stereo partly specified), the IC50 was 500 µM.

`CCCCNc1nc(N)c2ncn(C3O[C@H](CO)[C@@H](O)[C@H]3O)c2n1` (stereo partly specified) was tested, and the IC50 was 1500 µM.

Compound `Nc1nc(NCc2ccc(Cl)cc2)nc2c1ncn2C1O[C@H](CO)[C@@H](O)[C@H]1O` (stereo partly specified) has an IC50 of 1400 µM.

Compound `Nc1nc(NCc2cccc(Cl)c2)nc2c1ncn2C1O[C@H](CO)[C@@H](O)[C@H]1O` (stereo partly specified) has an IC50 of 800 µM.

`CC(CNc1nc(N)c2ncn(C3O[C@H](CO)[C@@H](O)[C@H]3O)c2n1)c1ccccc1` (stereo partly specified) was tested, and the IC50 was 3500 µM.

`Nc1nc(NCC2CCCO2)nc2c1ncn2C1O[C@H](CO)[C@@H](O)[C@H]1O` (stereo partly specified) showed an IC50 of 800 µM.

`Nc1nc(NCc2ccco2)nc2c1ncn2C1O[C@H](CO)[C@@H](O)[C@H]1O` (stereo partly specified) showed an IC50 of 1200 µM.

`COc1ccccc1CCNc1nc(N)nc2c1ncn2C1O[C@H](CO)[C@@H](O)[C@H]1O` (stereo partly specified) showed an IC50 of 1800 µM.

Compound `Nc1nc(NCCc2ccc(O)cc2)c2ncn(C3O[C@H](CO)[C@@H](O)[C@H]3O)c2n1` (stereo partly specified) has an IC50 of 130 µM.

`Nc1nc(NCCc2ccc(Cl)cc2)c2ncn(C3O[C@H](CO)[C@@H](O)[C@H]3O)c2n1` (stereo partly specified) was tested, and the IC50 was 1400 µM.

For `COc1ccc(CCNc2nc(N)nc3c2ncn3C2O[C@H](CO)[C@@H](O)[C@H]2O)cc1O` (stereo partly specified), the IC50 was 850 µM.

`COc1ccc(CNc2nc(N)c3ncn(C4O[C@H](CO)[C@@H](O)[C@H]4O)c3n2)cc1` (stereo partly specified) was tested, and the IC50 was 1000 µM.

`Nc1nc(NCCCNc2nc(N)nc3c2ncn3C2O[C@H](CO)[C@@H](O)[C@H]2O)c2ncn(C3O[C@@H](CO)[C@H](O)[C@@H]3O)c2n1` (stereo partly specified) gave an IC50 of 50 µM.

`CCCCNc1nc(N)nc2c1ncn2C1O[C@H](CO)[C@@H](O)[C@H]1O` (stereo partly specified) was tested, and the IC50 was 900 µM.

Compound `Nc1nc(NCc2ccccc2)nc2c1ncn2C1O[C@H](CO)[C@@H](O)[C@H]1O` (stereo partly specified) has an IC50 of 3500 µM.

`Nc1nc(NCc2ccco2)c2ncn(C3O[C@H](CO)[C@@H](O)[C@H]3O)c2n1` (stereo partly specified) showed an IC50 of 1500 µM.

In the case of `Nc1nc(NCCCCCNc2nc(N)nc3c2ncn3C2O[C@H](CO)[C@@H](O)[C@H]2O)c2ncn(C3O[C@@H](CO)[C@H](O)[C@@H]3O)c2n1` (stereo partly specified), the IC50 is reported as 1000 µM.

In the case of `Cc1ccc(CCNc2nc(N)nc3c2ncn3C2O[C@H](CO)[C@@H](O)[C@H]2O)cc1` (stereo partly specified), the IC50 is reported as 2000 µM.

Work on `CCCNc1nc(N)c2ncn([C@@H]3O[C@H](CO)[C@@H](O)[C@H]3O)c2n1` yielded an IC50 of 1500 µM.

For `Nc1nc(NCCCc2ccccc2)nc2c1ncn2C1O[C@H](CO)[C@@H](O)[C@H]1O` (stereo partly specified), the IC50 was 1800 µM.

With `Nc1nc(NC2CCCCCC2)c2ncn(C3O[C@H](CO)[C@@H](O)[C@H]3O)c2n1` (stereo partly specified) the IC50 was 2500 µM.

For `Nc1nc(NCc2ccccc2)c2ncn(C3O[C@H](CO)[C@@H](O)[C@H]3O)c2n1` (stereo partly specified), the IC50 was 600 µM.

With `Nc1nc(NCCc2ccc(O)c(O)c2)c2ncn(C3O[C@H](CO)[C@@H](O)[C@H]3O)c2n1` (stereo partly specified) the IC50 was 250 µM.

Compound `Nc1nc(NCCc2ccccc2Cl)nc2c1ncn2C1O[C@H](CO)[C@@H](O)[C@H]1O` (stereo partly specified) has an IC50 of 2200 µM.

`Nc1nc(NCc2cccc3ccccc23)c2ncn(C3O[C@H](CO)[C@@H](O)[C@H]3O)c2n1` (stereo partly specified) gave an IC50 of 1900 µM.

`Nc1nc(NCCCCNc2nc(N)nc3c2ncn3C2O[C@H](CO)[C@@H](O)[C@H]2O)c2ncn(C3O[C@@H](CO)[C@H](O)[C@@H]3O)c2n1` (stereo partly specified) was tested, and the IC50 was 750 µM.

Work on `COc1ccc(CCNc2nc(N)nc3c2ncn3C2O[C@H](CO)[C@@H](O)[C@H]2O)cc1` (stereo partly specified) yielded an IC50 of 1500 µM.

Work on `Nc1ccc(CCNc2nc(N)nc3c2ncn3C2O[C@H](CO)[C@@H](O)[C@H]2O)cc1` (stereo partly specified) yielded an IC50 of 250 µM.

`Cc1ccccc1CNc1nc(N)c2ncn(C3O[C@H](CO)[C@@H](O)[C@H]3O)c2n1` (stereo partly specified) showed an IC50 of 1500 µM.

Work on `Nc1nc(NCC(O)c2ccccc2)nc2c1ncn2[C@@H]1O[C@H](CO)[C@@H](O)[C@H]1O` (stereo partly specified) yielded an IC50 of 1400 µM.

With `CCCCCNc1nc(N)nc2c1ncn2C1O[C@H](CO)[C@@H](O)[C@H]1O` (stereo partly specified) the IC50 was 2000 µM.
